The text below walks through data of patent US8822517B2, “Arylosulfonamides for the treatment of CNS diseases” (Adamed SP. Z O.O., priority 2010, dated 2014).

The target in assay [1] is T1, serotonine transporter (SERT) receptor (Homo sapiens, UniProt P31645).
T1 construct: expressed in transfected cells; host or cells: CHO cells
Put plainly: Binding assay SERT (h), [3H]imipramine, CHO cells. The note with it: read-out: SERT [%]. Summed up: (§1)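 Compounds tested at a single 1×10^−6 M concentration against the listed radioligands; bound label counted by scintillation, with non-specific binding defined by excess unlabelled ligand and subtracted from total.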

The next assay deals with adrenergic α1 receptor. The experiment in a line: Binding assay α1 (non-selective), [3H]prazosin, rat cerebral cortex. To be noted: percent inhibition of control specific binding; compounds tested at 1×10^−6 M. In a few lines:
as §1

In assay [2] the target is T2, serotoninergic receptor 5-HT2C (Homo sapiens, UniProt P28335).
T2 construct: expressed in transfected cells; host or cells: HEK-293 cells
T2 sequence (P28335 33-458): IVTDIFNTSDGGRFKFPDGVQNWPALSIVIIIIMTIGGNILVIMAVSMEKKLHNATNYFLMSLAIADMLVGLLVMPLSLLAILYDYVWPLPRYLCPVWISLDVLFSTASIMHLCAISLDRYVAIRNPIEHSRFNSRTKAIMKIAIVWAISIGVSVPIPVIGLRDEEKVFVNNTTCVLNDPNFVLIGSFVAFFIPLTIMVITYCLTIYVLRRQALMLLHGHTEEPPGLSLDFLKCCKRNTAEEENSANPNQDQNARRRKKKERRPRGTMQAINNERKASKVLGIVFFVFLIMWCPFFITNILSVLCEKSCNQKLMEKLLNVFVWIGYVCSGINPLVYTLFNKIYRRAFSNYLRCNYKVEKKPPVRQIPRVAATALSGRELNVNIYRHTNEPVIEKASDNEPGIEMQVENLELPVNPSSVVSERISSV
Put plainly: Binding assay 5-HT2C (h), [3H]mesulergine, HEK-293 cells. To be noted: read-out: 5-HT2C [%]. In a few lines: as §1

Assay [3] has as its target T3, dopaminergic D3 receptor (Homo sapiens, UniProt P35462). The experiment in a line: Cellular functional assay, dopaminergic D3 receptor (agonism/antagonism). The note with it: for inhibition at 1 µM: CHO, read-out: D3-antag. [%]; for activation at 1 µM: agonist effect, percent of control specific agonist response (300 nM dopamine for control), 1×10^−6 M, D3 (h), CHO cells, read-out: D3-ag [%]. It counts as cell-based. How it is done: (§2) The compounds were tested at the concentration of 1×10^−6M.
(§3) In the Tables ag refers to agonism, and antag to antagonism).

For assay [4], the target named is T4, serotoninergic 5-HT2A receptor (Homo sapiens, UniProt P28223). The experiment in a line: Cellular functional assay, serotoninergic 5-HT2A receptor (agonism/antagonism). It counts as cell-based. The note with it: for activation at 1 µM: read-out: 5-HT2A -ag [%]; for inhibition at 1 µM: read-out: 5-HT2A -antag [%]. Summed up:
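Human receptors tested in cell-based functional format for both agonist and antagonist modes. Single compound concentration of 1×10^−6M.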

The target in assay [5] is T5, serotoninergic 5-HT6 receptor (Homo sapiens, UniProt P50406). The experiment in a line: Cellular functional assay, serotoninergic 5-HT6 receptor (agonism/antagonism). It counts as cell-based. To be noted: for activation at 1 µM: agonist effect, percent of control specific agonist response, compounds tested at 1×10^−6M, read-out: 5-HT6-ag [%]; for inhibition at 1 µM: read-out: 5-HT6-antag. [%]. The procedure:
as §2, §3

Assay [6] deals with histaminergic H1 receptor (Homo sapiens, UniProt P35367). The experiment in a line: Cellular functional assay, histaminergic H1 receptor (agonism/antagonism). It counts as cell-based. The note with it: for activation at 1 µM: agonist effect, percent of control specific agonist response, compounds tested at 1×10^−6M, read-out: H1 -ag [%]; for inhibition at 1 µM: read-out: H1 -antag. [%]. The procedure:
as §2, §3

Assay [7] deals with T3, dopaminergic D3 receptor. The experiment in a line: Binding assay D3 (h), [3H]methyl-spiperone, CHO cells. On the set-up: expressed in transfected cells; host or cells: CHO cells. The note with it: read-out: D3 [%]. Summed up:
as §1

In assay [8] the target is T5, serotoninergic 5-HT6 receptor. The experiment in a line: Binding assay 5-HT6 (h), [3H]LSD, CHO cells. The note with it: read-out: 5-HT6. On the set-up: expressed in transfected cells; host or cells: CHO cells. Summed up: as §1
Assay [9] deals with serotoninergic 5-HT7 receptor (Homo sapiens, UniProt P34969). Put plainly: Binding assay 5-HT7 (h), [3H]LSD, CHO cells. On the set-up: expressed in transfected cells; host or cells: CHO cells. To be noted: read-out: 5-HT7. Summed up:
as §1

Assay [10] concerns the target T4, serotoninergic 5-HT2A receptor. The experiment in a line: Binding assay 5-HT2A (h), [3H]ketanserin, HEK-293 cells. On the set-up: expressed in transfected cells; host or cells: HEK-293 cells. The note with it: read-out: 5-HT2A. In a few lines:
as §1

Assay [11] addresses T6, serotoninergic 5-HT1A receptor (Homo sapiens, UniProt P08908).
T6 sequence (P08908 1-422): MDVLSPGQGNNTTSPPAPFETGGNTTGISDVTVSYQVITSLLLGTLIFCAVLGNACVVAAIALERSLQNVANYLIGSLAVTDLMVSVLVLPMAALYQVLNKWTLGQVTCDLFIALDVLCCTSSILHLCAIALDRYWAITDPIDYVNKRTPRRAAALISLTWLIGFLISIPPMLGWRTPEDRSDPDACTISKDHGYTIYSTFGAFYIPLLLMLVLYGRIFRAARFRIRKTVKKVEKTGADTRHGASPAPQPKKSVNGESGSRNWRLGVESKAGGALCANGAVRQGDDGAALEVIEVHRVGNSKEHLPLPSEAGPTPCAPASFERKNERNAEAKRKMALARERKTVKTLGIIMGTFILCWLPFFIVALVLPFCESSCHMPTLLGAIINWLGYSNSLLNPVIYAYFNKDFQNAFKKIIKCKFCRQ
The experiment in a line: Cellular functional assay, serotoninergic 5-HT1A receptor (agonism/antagonism). It counts as cell-based. The note with it: for inhibition at 1 µM: CHO, read-out: 5-HT1A-antag. [%]; for activation at 1 µM: agonist effect, percent of control specific agonist response (100 nM 8-OH-DPAT for control), 1×10^−6 M, 5-HT1A (h), CHO cells, read-out: 5-HT1A-ag [%]. How it is done: as §2, §3

Chain of histaminergic H1 receptor (P35367 whole entry): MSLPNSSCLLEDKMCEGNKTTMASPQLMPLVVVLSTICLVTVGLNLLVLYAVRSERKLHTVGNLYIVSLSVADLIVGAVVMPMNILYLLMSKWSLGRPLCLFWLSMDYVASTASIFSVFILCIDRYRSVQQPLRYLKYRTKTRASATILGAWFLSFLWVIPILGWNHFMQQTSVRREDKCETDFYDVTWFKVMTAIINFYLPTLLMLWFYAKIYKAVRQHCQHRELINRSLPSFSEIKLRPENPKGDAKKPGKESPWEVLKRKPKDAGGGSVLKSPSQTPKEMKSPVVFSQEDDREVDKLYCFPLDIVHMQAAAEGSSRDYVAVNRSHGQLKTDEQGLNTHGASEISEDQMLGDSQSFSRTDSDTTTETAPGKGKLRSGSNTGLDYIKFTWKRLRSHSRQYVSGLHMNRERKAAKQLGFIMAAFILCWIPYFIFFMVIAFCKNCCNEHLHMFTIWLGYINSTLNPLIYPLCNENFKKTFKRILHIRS
T1 sequence (P31645 whole entry): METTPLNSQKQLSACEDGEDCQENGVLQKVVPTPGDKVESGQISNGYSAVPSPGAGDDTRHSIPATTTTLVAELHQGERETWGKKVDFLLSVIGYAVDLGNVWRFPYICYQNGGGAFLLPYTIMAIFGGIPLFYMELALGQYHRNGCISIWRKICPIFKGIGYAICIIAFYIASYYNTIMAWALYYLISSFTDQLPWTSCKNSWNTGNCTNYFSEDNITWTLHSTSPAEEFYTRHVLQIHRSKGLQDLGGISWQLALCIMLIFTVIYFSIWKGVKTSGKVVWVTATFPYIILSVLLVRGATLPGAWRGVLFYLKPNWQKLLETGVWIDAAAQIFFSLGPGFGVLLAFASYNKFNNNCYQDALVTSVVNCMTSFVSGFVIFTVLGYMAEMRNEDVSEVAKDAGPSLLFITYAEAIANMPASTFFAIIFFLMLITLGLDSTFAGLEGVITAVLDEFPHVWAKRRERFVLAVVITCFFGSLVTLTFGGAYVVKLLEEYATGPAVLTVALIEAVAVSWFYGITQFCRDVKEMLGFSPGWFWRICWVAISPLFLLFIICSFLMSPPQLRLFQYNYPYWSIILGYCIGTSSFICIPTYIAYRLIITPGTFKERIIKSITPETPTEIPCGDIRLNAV
Chain of serotoninergic 5-HT7 receptor (P34969 whole entry): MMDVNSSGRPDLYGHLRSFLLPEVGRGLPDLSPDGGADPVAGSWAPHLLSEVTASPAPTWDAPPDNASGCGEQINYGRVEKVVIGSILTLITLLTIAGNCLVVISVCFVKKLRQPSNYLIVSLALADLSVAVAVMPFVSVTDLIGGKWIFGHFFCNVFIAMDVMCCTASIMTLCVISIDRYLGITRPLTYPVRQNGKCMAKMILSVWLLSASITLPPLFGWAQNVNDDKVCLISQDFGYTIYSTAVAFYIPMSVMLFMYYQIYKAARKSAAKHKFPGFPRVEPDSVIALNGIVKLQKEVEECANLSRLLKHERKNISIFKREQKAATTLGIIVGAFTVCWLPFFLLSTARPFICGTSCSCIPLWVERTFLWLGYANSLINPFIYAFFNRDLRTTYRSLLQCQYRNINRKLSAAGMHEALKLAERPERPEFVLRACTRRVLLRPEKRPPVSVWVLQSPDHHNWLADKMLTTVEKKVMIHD
T5 sequence (P50406 whole entry): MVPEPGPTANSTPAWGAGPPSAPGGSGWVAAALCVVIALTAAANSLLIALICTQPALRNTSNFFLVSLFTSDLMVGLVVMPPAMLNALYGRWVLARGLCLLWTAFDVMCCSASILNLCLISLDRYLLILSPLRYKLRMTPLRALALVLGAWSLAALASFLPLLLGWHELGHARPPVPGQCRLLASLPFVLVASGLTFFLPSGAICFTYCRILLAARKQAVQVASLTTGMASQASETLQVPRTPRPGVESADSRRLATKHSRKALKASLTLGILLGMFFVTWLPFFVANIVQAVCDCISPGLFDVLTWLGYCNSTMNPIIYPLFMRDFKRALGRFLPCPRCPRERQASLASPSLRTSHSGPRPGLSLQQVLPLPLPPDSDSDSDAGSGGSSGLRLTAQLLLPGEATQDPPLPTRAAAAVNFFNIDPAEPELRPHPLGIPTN
T4 sequence (P28223 whole entry): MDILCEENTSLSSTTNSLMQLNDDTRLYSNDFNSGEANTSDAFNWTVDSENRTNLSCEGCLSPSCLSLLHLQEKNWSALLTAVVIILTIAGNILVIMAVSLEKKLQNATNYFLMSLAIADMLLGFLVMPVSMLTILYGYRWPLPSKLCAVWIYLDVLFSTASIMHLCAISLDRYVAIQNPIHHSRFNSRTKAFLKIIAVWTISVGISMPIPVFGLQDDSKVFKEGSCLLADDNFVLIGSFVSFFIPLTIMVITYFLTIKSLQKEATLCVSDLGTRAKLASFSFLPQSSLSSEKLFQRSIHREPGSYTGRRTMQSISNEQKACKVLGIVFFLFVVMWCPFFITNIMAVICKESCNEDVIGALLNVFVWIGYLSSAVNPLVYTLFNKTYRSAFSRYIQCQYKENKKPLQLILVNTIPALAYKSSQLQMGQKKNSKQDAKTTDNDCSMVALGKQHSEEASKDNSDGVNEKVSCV
T3 sequence (P35462 whole entry): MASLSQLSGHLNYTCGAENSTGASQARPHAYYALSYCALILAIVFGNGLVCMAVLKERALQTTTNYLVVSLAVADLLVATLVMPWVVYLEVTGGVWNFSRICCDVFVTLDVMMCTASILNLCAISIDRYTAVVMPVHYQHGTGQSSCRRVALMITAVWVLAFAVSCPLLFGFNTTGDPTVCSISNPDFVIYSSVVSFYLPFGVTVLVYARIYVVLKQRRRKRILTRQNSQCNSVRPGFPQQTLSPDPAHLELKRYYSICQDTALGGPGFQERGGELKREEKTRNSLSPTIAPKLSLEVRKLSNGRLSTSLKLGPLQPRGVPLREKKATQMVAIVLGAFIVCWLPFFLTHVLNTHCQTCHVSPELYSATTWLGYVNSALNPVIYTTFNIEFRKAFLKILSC

For the molecule `O=S(=O)(NCCCCN1CCN(c2nsc3ccccc23)CC1)c1cccc2ccccc12` [Compound 1, N-(4-(4-(1,2-Benzothiazol-3-yl)piperazin-1-yl)butyl)naphthalene-1-sulphonamide], the inhibition at 1 µM is 49% in assay [1]; 80% in [2]; 49% at dopaminergic D3 receptor [3]; 99% in assay [4]; 39% in [5]; 51% in assay [6]. The inhibition at 1 µM on dopaminergic D3 receptor [7] is 96%; in [8], 95%; in [9] it was 96%; in [10] it was 99%. In addition, the “α1 [%]” value with adrenergic α1 receptor is on record as 99%. Besides, the activation at 1 µM is -17% on dopaminergic D3 receptor [3], 0% in assay [4], 1% in assay [5] and 0% in assay [6].
With `Cc1cccc(S(=O)(=O)NCCCN2CCC(c3noc4cc(F)ccc34)CC2)c1` [Compound 22, N-[3-[4-(6-Fluoro-1,2-benzoxazol-3-yl)piperidin-1-yl]propyl]-3-methylbenzenesulphonamide], the inhibition at 1 µM was determined as 44% in [1]; 73% in assay [2]; 81% on dopaminergic D3 receptor [3]; 99% in [11]; 102% in [4]; 82% in assay [5]. For the same molecule, the inhibition at 1 µM on dopaminergic D3 receptor [7] stood at 96%; in [8], 99%; in [9], 99%; in assay [10] it was 99%. Also, the “α1 [%]” value in the assay with adrenergic α1 receptor is 100%. For the same molecule, the activation at 1 µM is -25% on dopaminergic D3 receptor [3], 0% in assay [11], -1% in assay [4] and 1% in [5].
On to `O=S(=O)(NCCCCN1CCN(c2noc3ccccc23)CC1)c1ccc2cc(Cl)ccc2c1` [Compound 79, N-[4-[4-(1,2-Benzoxazol-3-yl)piperazin-1-yl]butyl]-6-chloro-naphthalene-2-sulphonamide], for which the inhibition at 1 µM in assay [1] turned out to be 3%; in [2], 72%; at dopaminergic D3 receptor [3], 77%; in assay [4], 97%; in assay [5] it was 76%; in assay [6] it was 57%. Besides, the inhibition at 1 µM came to 96% at dopaminergic D3 receptor [7], 97% in [8], 97% in assay [9] and 91% in [10]. For the same molecule, the “α1 [%]” value in the assay with adrenergic α1 receptor came out at 88%. Besides, the activation at 1 µM at dopaminergic D3 receptor [3] is -9%; in assay [4], -2%; in assay [5], 1%; in [6], 0%.
Consider `O=S(=O)(NCCCN1CCC(c2noc3cc(F)ccc23)CC1)c1ccc2cc(Cl)ccc2c1` [Compound 98, 6-Chloro-N-[3-[4-(6-fluoro-1,2-benzoxazol-3-yl)piperidin-1-yl]propyl]naphthalene-2-sulphonamide], for which the inhibition at 1 µM came out at 54% in [1]; 91% in [2]; 109% on dopaminergic D3 receptor [3]; 97% in assay [4]; 79% in assay [5]; 78% in [6]. In addition, the inhibition at 1 µM on dopaminergic D3 receptor [7] turned out to be 104%; in assay [8] it was 98%; in [9], 98%; in [10] it was 102%. For the same molecule, the activation at 1 µM was -10% at dopaminergic D3 receptor [3], -2% in [4], -2% in assay [5] and -1% in assay [6].
Take `Cc1c(S(=O)(=O)NCCCCN2CCC(c3noc4cc(F)ccc34)CC2)sc2ccc(F)cc12` [Compound 101, 5-Fluoro-N-[4-[4-(6-fluoro-1,2-benzoxazol-3-yl)piperidin-1-yl]butyl]-3-methylbenzothiophene-2-sulphonamide]: the inhibition at 1 µM in assay [1] was 47%; in [2], 80%; at dopaminergic D3 receptor [3], 112%; in assay [4], 100%; in assay [5] it was 103%; in assay [6], 94%. The inhibition at 1 µM at dopaminergic D3 receptor [7] turned out to be 92%; in assay [8], 98%; in assay [9], 98%; in assay [10] it was 100%. The “α1 [%]” value in the assay on adrenergic α1 receptor is 99%. For the same molecule, the activation at 1 µM on dopaminergic D3 receptor [3] was -18%; in assay [4], -1%; in [5] it was -2%; in assay [6], 33%.
With `O=S(=O)(NCCCN1CCC(c2noc3cc(F)ccc23)CC1)c1ccc(F)c(Cl)c1` [Compound 331, 3-Chloro-4-fluoro-N-[3-[4-(6-fluoro-1,2-benzoxazol-3-yl)piperidin-1-yl]propyl]benzenesulphonamide], the inhibition at 1 µM in assay [1] came out at 31%; in [2], 82%; at dopaminergic D3 receptor [3], 114%; in [4], 98%; in assay [5], 98%; in assay [6] it was 85%. The inhibition at 1 µM turned out to be 100% at dopaminergic D3 receptor [7], 97% in [8], 99% in [9] and 102% in assay [10]. The activation at 1 µM at dopaminergic D3 receptor [3] was -15%; in assay [4], -1%; in [5], -1%; in [6] it was 2%.
In the case of `O=S(=O)(NCCCCN1CCN(c2cccc3[nH]ccc23)CC1)c1cc2ccc(Cl)cc2s1` [Compound 363, 6-Chloro-N-[4-[4-(1H-indol-4-yl)piperazin-1-yl]butyl]benzothiophene-2-sulphonamide], the inhibition at 1 µM was 32% in assay [1]; 57% in [2]; -3% at dopaminergic D3 receptor [3]; 27% in [11]; 62% in assay [4]; 101% at dopaminergic D3 receptor [7]. The inhibition at 1 µM in [8] stood at 84%; in assay [9], 98%; in [10] it was 98%. Besides, the “α1 [%]” value in the assay on adrenergic α1 receptor stood at 92%. In addition, the activation at 1 µM at dopaminergic D3 receptor [3] is 65%; in assay [11], 78%; in assay [4], -1%.
